Experiment [1] concerns the target T1, rat NR1/NR2B receptor (Rattus norvegicus (Rat), UniProt P35439+Q00960). The experiment is described as follows: NR2B binding assay: inhibition of specific [3H]-Ifenprodil binding to the rat NR1/NR2B receptor. As to conditions: rat brain membranes, Hill-plot 2-parameter-model. As for the experimental part: Inhibition of Specific Binding to the Rat NR1/NR2B Receptor
(§1) Male Wistar rats (180 to 200 g) were killed by suffocation in a CO2 chamber for two minutes. Whole brains without cerebellum were removed and dissected on ice, placed into closed vials and stored at −70° C.
Membrane fractions were prepared and tested using standard techniques. At the time of the assay, 1 g of the brains was placed into 25 ml of 50 mM Tris/10 mM EDTA buffer, pH 7.1, (25 vol. per g of original tissue) and homogenized for 30 sec at 20000 rpm with an Ultraturrax T25 (Jahnke & Kunkel, IKA-Labortechnik, Staufen, Germany). The homogenate was centrifuged at 4° C. for 10 min at 48000 g (OPTIMA L-70, Beckman, Palo Alto, Calif. 94304, USA).
The supernatant was discarded and the pellet was homogenized on ice for 30 sec at 20000 rpm with an Ultraturrax and again centrifuged at 48000 g for 30 minutes at 4° C. The resulted pellet was resuspended in 25 ml of 50 mM Tris/10 mM EDTA buffer, homogenized for 30 sec with an Ultraturrax, aliquoted, frozen at −70° C. and stored until use.
After thawing on the day of the assay, a 5 ml membrane aliquot was centrifuged at 48000 g for 30 min at 4° C. The pellet was resuspended in 5 ml of 5 mM Tris/1 mM EDTA buffer, pH 7.4, homogenized for 30 sec at 20000 rpm with an Ultraturrax and centrifuged at 48000 g for 30 min at 4° C. This was repeated twice. The final pellet was homogenized in 5 ml of 5 mM Tris/l mM EDTA buffer at 4° C. with an Ultraturrax and used for the Ifenprodil-binding assay as described in the following.
Nonspecific binding was estimated in the presence of […] CP101.606. The samples were incubated for 60 min. at 4° C.
The incubation was terminated by filtration of the membrane preparations using Filtermat B (Pharmacia, Uppsala Sweden) and a Micro Cell Harvester (Skatron, Lier, Norway). The Filtermat B had been presoaked with 1% polyethylene imine and carefully washed with 50 mM Tris/HCl-buffer pH 7.7 after the filtration to separate free and bound radioactivity.
The optimal amount of membrane preparation in the assay had been determined and optimized for each membrane preparation separately before the test.
For pipetting of the incubation mixture we routinely used the robot Biomek2000 (Fa. Beckman).
For determination of IC50 values the Hill-plot, 2-parameter-model was used.

Another experiment concerns the target hERG-receptor (Homo sapiens (Human), UniProt Q12809). The experiment is described as follows: HERGBD: inhibition of specific 3H-Dofetilide binding to the hERG-receptor. To be noted: HEK cell membranes with human ERG, Hill-plot 2-parameter-model. As for the experimental part:
Inhibition of Specific Binding to the hERG-Receptor (HERGBD)
A HEK cell line with stable transfected human ERG receptor was used for the assay. The cells were grown adherently and maintained in DULBECCOS' MEM medium with 10% FBS, 1% non-essential amino acids, 1% Penicillin/Streptomycin and 400 μg/ml G418 (Calbiochem).
For binding assays and membrane preparations the cell culture medium was removed, cells were washed with PBS. Crude membranes for radioligand binding experiments were prepared by scraping the cells off the dishes in ice cold 20 mM HEPES/0.1 mM KCl/pH 7.2. The cell suspension was homogenized on ice (Ultra turrax, 3×20 sec.) and the homogenate was spun for 10 min (1° C., 1000 g, OPTIMA, SW28, 2800 U/min). The supernatant was than centrifuged for 40 min at 100000 g (1° C., OPTIMA, SW28, 23000 U/min). The membrane pellet was resuspended in 20 mM HEPES/0.1 mM KCl/pH 7.2, frozen and stored at −80° C.
After thawing on the day of the assay, the membrane suspension was diluted further with 20 mM HEPES/0.1 mM KCl/pH 7.2.
The incubation mixture of 200 μl contained 1.5 nmol/l 3H-Dofetilide, optimized amount of membrane preparation, 20 mM HEPES/0.1 mM KCl/(pH 7.2) and inhibitor in 1% DMSO. Nonspecific binding was estimated in the presence of […] Dofetilide. The samples were incubated for 90 min. at RT.
Binding was terminated by filtration of the incubated membrane preparations using Filtermat B (Pharmacia, Uppsala Sweden) and a Micro Cell Harvester (Skatron, Lier, Norway). The Filtermat B had been presoaked with 1% polyethylenimine and carefully washed with 0.05 M Tris/HCl-buffer pH=7.7 after the filtration to separate free and bound radioactivity. The filters were counted in a scintillation counter (Betaplate 1205, Berthold, Wildbad, Germany) in order to determine the specific binding of [^3H]-Dofetilide.
The optimal amount of membrane preparation in the assay was determined and optimized for each membrane preparation separately in front of using the membranes in compound testing.
For pipetting of the incubation mixture we routinely use the robot Biomek2000 (Fa. Beckman).
For orientation: The hERG channel carries a current that helps repolarise heart muscle cells.

In experiment [2] the target is T1, rat NR1/NR2B receptor. The experiment is described as follows: RRNR2BB: inhibition of specific binding to the rat NR1/NR2B receptor. As to conditions: [3H]-Ifenprodil binding, rat brain membranes, Hill-plot 2-parameter-model. On the procedure: RRNR2BB—Inhibition of Specific Binding to the Rat NR1/NR2B Receptor
as §1
Membrane fractions were prepared and tested using standard techniques. At the time of the assay, 1 g of the brains were placed into 25 ml of 50 mM Tris/10 mM EDTA buffer, pH=7.1, (25 vol. per g of original tissue) and was homogenized for 30 sec at 20000 U/min with an Ultraturrax T25 (Jahnke & Kunkel, IKA-Labortechnik, Staufen, Germany). The homogenate was centrifuged at 4° C. for 10 min at 48000 g (OPTIMA L-70, Beckman, Palo Alto, Calif. 94304, USA). The supernatant was discarded and the pellet was homogenized on ice for 30 sec at 20000 U/min with an Ultraturrax and again centrifuged at 48000 g for 30 minutes at 4° C. The resultant pellet was resuspended in 25 ml of 50 mM Tris/10 mM EDTA buffer, homogenized for 30 sec with an Ultraturrax, aliquoted, frozen at −70° C. and stored until use
After thawing on the day of the assay, a 5 ml membrane aliquote was centrifuged at 48000 g for 30 min at 4° C. The pellet was resuspended in 5 ml of 5 mM Tris/1 mM EDTA buffer, pH=7.4, homogenized for 30 sec at 20000 U/min with an Ultraturrax and centrifuged at 48000 g for 30 min at 4° C. This step was repeated twice. The final pellet was homogenized in 5 ml of 5 mM Tris/mM EDTA buffer at 4° C. with an Ultraturrax and used for the Ifenprodil-binding assay.
Nonspecific binding was estimated in the presence of 10 M CP101.606. The samples were incubated for 60 min. at 4° C.
Binding was terminated by filtration of the incubated membrane preparations using Filtermat B (Pharmacia, Uppsala Sweden) and a Micro Cell Harvester (Skatron, Lier, Norway). The Filtermat B had been presoaked with 1% polyethylenimine and carefully washed with […] Tris/HCl-buffer pH=7.7 after the filtration to separate free and bound radioactivity.
For pipetting of the incubation mixture the robot Biomek2000 (Fa. Beckman) was used.
The IC50 values in the tables below were determined using the Hill-plot, 2-parameter-model.

T1 sequence (Q00960 27-1482, other chains not shown): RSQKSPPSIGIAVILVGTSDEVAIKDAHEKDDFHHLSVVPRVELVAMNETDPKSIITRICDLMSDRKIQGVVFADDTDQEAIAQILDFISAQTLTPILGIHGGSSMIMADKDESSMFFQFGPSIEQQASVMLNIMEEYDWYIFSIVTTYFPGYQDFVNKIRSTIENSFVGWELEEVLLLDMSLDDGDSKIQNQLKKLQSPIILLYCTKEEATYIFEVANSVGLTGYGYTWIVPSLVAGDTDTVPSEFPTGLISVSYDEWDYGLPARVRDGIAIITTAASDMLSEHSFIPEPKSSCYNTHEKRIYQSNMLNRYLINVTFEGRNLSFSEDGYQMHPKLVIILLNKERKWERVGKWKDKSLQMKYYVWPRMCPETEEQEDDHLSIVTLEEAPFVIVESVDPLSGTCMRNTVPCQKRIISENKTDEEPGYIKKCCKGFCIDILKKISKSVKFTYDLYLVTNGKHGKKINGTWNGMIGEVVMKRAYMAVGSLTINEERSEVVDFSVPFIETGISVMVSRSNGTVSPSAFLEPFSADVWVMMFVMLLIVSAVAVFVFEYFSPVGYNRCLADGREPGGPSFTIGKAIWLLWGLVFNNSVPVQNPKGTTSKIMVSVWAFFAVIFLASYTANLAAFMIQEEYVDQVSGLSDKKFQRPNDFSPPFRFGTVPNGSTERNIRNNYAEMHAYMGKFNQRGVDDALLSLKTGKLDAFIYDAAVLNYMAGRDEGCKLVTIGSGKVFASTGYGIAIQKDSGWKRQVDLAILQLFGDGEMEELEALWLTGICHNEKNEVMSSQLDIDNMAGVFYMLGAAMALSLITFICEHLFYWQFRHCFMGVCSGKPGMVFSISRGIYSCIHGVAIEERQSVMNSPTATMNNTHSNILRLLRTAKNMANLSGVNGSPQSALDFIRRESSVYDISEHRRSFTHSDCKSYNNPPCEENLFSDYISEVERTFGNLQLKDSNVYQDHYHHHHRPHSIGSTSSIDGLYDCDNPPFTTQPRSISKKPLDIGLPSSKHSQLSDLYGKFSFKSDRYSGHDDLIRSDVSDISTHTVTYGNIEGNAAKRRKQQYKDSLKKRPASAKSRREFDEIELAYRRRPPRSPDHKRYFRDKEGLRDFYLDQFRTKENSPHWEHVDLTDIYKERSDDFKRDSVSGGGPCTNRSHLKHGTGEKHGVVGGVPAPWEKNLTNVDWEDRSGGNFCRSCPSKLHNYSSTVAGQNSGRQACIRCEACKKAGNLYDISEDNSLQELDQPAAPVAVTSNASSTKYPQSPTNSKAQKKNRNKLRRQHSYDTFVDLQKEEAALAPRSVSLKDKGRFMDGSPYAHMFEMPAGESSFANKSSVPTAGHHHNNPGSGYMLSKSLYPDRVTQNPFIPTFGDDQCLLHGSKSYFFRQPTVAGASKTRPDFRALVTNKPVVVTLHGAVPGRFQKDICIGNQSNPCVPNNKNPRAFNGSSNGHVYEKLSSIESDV
Chain of hERG-receptor (Q12809 whole entry): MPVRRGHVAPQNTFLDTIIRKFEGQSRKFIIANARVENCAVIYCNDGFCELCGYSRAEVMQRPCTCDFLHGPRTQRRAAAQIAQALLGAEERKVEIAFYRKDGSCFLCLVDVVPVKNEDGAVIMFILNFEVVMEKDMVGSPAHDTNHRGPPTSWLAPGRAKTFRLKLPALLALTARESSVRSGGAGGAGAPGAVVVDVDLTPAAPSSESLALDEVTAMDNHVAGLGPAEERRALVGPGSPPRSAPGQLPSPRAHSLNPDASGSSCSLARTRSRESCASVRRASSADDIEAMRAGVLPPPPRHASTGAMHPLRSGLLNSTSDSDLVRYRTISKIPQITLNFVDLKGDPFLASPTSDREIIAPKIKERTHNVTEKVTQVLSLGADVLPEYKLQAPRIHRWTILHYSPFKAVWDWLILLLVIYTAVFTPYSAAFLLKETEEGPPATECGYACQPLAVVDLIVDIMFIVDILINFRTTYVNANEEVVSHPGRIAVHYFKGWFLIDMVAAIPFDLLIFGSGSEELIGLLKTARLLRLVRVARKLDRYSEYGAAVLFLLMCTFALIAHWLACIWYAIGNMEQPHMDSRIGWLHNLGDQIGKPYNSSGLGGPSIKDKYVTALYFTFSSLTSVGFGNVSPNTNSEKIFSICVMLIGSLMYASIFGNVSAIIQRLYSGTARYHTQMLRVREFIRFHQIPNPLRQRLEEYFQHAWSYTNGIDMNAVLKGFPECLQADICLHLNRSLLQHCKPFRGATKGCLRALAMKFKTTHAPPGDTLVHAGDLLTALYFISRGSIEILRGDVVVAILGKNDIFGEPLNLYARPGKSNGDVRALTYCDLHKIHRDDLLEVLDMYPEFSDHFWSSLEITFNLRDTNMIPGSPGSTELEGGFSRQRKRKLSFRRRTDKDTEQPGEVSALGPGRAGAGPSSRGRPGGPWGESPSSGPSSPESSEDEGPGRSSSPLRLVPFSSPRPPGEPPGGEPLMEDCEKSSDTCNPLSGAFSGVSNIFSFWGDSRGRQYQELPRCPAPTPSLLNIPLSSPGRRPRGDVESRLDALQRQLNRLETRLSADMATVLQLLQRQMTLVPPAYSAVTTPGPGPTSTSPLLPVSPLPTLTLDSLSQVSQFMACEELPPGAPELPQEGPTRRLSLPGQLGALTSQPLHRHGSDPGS

As for `CC(C)(C)c1nccn1Cc1cn(-c2ccc(Cl)c(Cl)c2)nn1` [Example 38, 4-(2-tert-Butyl-imidazol-1-ylmethyl)-1-(3,4-dichloro-phenyl)-1H-[1,2,3]triazole], the IC50 at rat NR1/NR2B receptor [1] was determined as 526 nM; at hERG-receptor, 5680 nM; on rat NR1/NR2B receptor [2], 526 nM.
In the case of `Clc1ccc(-n2cc(Cn3ccnc3C3CCC3)nn2)cc1Cl` [Example 39, 4-(2-Cyclobutyl-imidazol-1-ylmethyl)-1-(3,4-dichloro-phenyl)-1H-[1,2,3]triazole], the values for the IC50 at rat NR1/NR2B receptor [1], at hERG-receptor and at rat NR1/NR2B receptor [2] were 7.58 nM, 1740 nM and 7.58 nM, respectively.
Turning to `OCCc1nccn1Cc1cn(-c2ccc(Cl)c(Cl)c2)nn1` [Example 40, 4-[2-(2-Hydroxyethyl)-imidazol-1-ylmethyl]-1-(3,4-dichloro-phenyl)-1H-[1,2,3]triazole], the IC50 on rat NR1/NR2B receptor [1] is 17.2 nM; at hERG-receptor, 14700 nM; at rat NR1/NR2B receptor [2], 17.2 nM.
Consider `FCCc1nccn1Cc1cn(-c2ccc(Cl)c(Cl)c2)nn1` [Example 41, 1-(3,4-Dichloro-phenyl)-4-[2-(2-fluoro-ethyl)-imidazol-1-ylmethyl]-1H-[1,2,3]triazole], for which the IC50 amounted to 26.2 nM on rat NR1/NR2B receptor [1], 13700 nM on hERG-receptor and 26.2 nM on rat NR1/NR2B receptor [2].
For the compound `Fc1ccc(-n2cc(Cn3ccnc3C3CC3)nn2)cc1Cl` [Example 44], the values for the IC50 on rat NR1/NR2B receptor [1], on hERG-receptor and at rat NR1/NR2B receptor [2] were 28.3 nM, 3570 nM and 28.3 nM, respectively.
As for `CCCCc1nccn1Cc1cn(-c2ccc(F)c(Cl)c2)nn1` [Example 45, 4-(2-Butyl-imidazol-1-ylmethyl)-1-(3-chloro-4-fluoro-phenyl)-1H-[1,2,3]triazole], the IC50 on rat NR1/NR2B receptor [1] is 7.68 nM; at hERG-receptor, 539 nM; on rat NR1/NR2B receptor [2], 7.68 nM.
In the case of `Cc1nccn1Cc1cn(-c2ccc(Cl)cc2Cl)nn1` [Example 49, 1-(2,4-Dichloro-phenyl)-4-(2-methyl-imidazol-1-ylmethyl)-1H-[1,2,3]triazole], the IC50 on rat NR1/NR2B receptor [1] worked out at 778 nM; at hERG-receptor, 4530 nM; at rat NR1/NR2B receptor [2] it was 778 nM.
As for `Cc1nccn1Cc1cn(-c2ccc(Cl)c(F)c2)nn1` [Example 50, 1-(4-Chloro-3-fluoro-phenyl)-4-(2-methyl-imidazol-1-ylmethyl)-1H-[1,2,3]triazole], the IC50 was determined as 21.2 nM at rat NR1/NR2B receptor [1], 3390 nM at hERG-receptor and 21.2 nM at rat NR1/NR2B receptor [2].
`Cc1nccn1Cc1cn(-c2ccc(F)c(Cl)c2)nn1` [Example 51, 1-(3-Chloro-4-fluoro-phenyl)-4-(2-methyl-imidazol-1-ylmethyl)-1H-[1,2,3]triazole]: the figures for the IC50 at rat NR1/NR2B receptor [1], on hERG-receptor and on rat NR1/NR2B receptor [2] were 7.01 nM, 4970 nM and 7.01 nM, respectively.
For the compound `COc1cc(F)ccc1-n1cc(Cn2ccnc2C)nn1` [Example 52, 1-(4-Fluoro-2-methoxy-phenyl)-4-(2-methyl-imidazol-1-ylmethyl)-1H-[1,2,3]triazole], the concentration for half-maximal inhibition (IC50) was 1180 nM at rat NR1/NR2B receptor [1], 41700 nM on hERG-receptor and 1180 nM at rat NR1/NR2B receptor [2].
With `Cc1ccc(-n2cc(Cn3ccnc3C)nn2)cc1F` [Example 53, 1-(3-Fluoro-4-methyl-phenyl)-4-(2-methyl-imidazol-1-ylmethyl)-1H-[1,2,3]triazole], the IC50 on rat NR1/NR2B receptor [1] was determined as 26.5 nM; at hERG-receptor, 6410 nM; on rat NR1/NR2B receptor [2], 26.5 nM.
As for `Cc1cc(-n2cc(Cn3ccnc3C)nn2)ccc1F` [Example 54, 1-(4-Fluoro-3-methyl-phenyl)-4-(2-methyl-imidazol-1-ylmethyl)-1H-[1,2,3]triazole], the IC50 is 5.32 nM on rat NR1/NR2B receptor [1], 6210 nM on hERG-receptor and 5.32 nM at rat NR1/NR2B receptor [2].
As for `Cc1cc(-n2cc(Cn3ccnc3C)nn2)ccc1Cl` [Example 55, 1-(4-Chloro-3-methyl-phenyl)-4-(2-methyl-imidazol-1-ylmethyl)-1H-[1,2,3]triazole], the IC50 on rat NR1/NR2B receptor [1] turned out to be 1.64 nM; on hERG-receptor, 4710 nM; at rat NR1/NR2B receptor [2] it was 1.64 nM.
Take `Cc1nccn1Cc1cn(-c2ccc(Cl)c(C(F)(F)F)c2)nn1` [Example 56, 1-(4-Chloro-3-trifluoromethyl-phenyl)-4-(2-methyl-imidazol-1-ylmethyl)-1H-[1,2,3]triazole]: the IC50 at rat NR1/NR2B receptor [1] is 11.9 nM; at hERG-receptor, 6460 nM; at rat NR1/NR2B receptor [2], 11.9 nM.
In the case of `Cc1nccn1Cc1cn(-c2cccc(OC(F)(F)F)c2)nn1` [Example 57, 4-(2-Methyl-imidazol-1-ylmethyl)-1-(3-trifluoromethoxy-phenyl)-1H-[1,2,3]triazole], the IC50 on rat NR1/NR2B receptor [1] worked out at 7.21 nM; at hERG-receptor, 8590 nM; at rat NR1/NR2B receptor [2], 7.21 nM.
As to `Cc1nccn1Cc1cn(-c2cccc(C(F)(F)F)c2)nn1` [Example 58, 4-(2-Methyl-imidazol-1-ylmethyl)-1-(3-trifluoromethyl-phenyl)-1H-[1,2,3]triazole], the IC50 on rat NR1/NR2B receptor [1] was 17.4 nM; on hERG-receptor it was 15000 nM; at rat NR1/NR2B receptor [2], 17.4 nM.
Take `Cc1nccn1Cc1cn(-c2ccc(C(F)(F)F)cc2)nn1` [Example 59, 4-(2-Methyl-imidazol-1-ylmethyl)-1-(4-trifluoromethyl-phenyl)-1H-[1,2,3]triazole]: the figures for the IC50 on rat NR1/NR2B receptor [1], at hERG-receptor and at rat NR1/NR2B receptor [2] were 46 nM, 6270 nM and 46 nM, respectively.

For orientation: IC50 means the concentration at which inhibition is half-maximal.
